The text below walks through data of publication PMC7582905, “Effect of Disulfide Cyclization of Ultrashort Cationic Lipopeptides on Antimicrobial Activity and Cytotoxicity” (International Journal of Molecular Sciences, 2020).

The structures appear in SMILES notation. Values after ≈ are worked out from the molar mass of the structure shown. Where a SMILES comes first, the peptide text is derived from it. Bridges are numbered along the chain shown (N, C = ends). The star is where a group is joined. Palmitoyl = CCCCCCCCCCCCCCCC(=O)*

Format in all cases: cell-based
In assay [1] the test system is Staphylococcus epidermidis ATCC 14990. The following applies: ATCC 14990, 18 h. The protocol:
(§1) The Staphylococcus aureus ATCC 25923, Staphylococcus epidermidis ATCC 14990, Escherichia coli ATCC 25922, Pseudomonas aeruginosa ATCC 9027, Candida albicans ATCC 10231, Candida glabrata ATCC 15126, Candida lipolytica PCM 2680-FY, and Candida tropicalis PCM 2709-FY strains were acquired from the Polish Collection of Microorganisms (PCM, Polish Academy of Sciences, Wrocław, Poland) and from the American Type Culture Collection (ATCC). All the strains were stored at −80 °C in Roti-Store cryo vials and before the tests were transferred into fresh Mueller–Hinton broth (MHB, Biocorp, Warsaw, Poland) for bacteria or RPMI-1640 (Sigma-Aldrich, Steinheim, Germany) for fungi and incubated for 24 h at 37 °C. Then, the cultures were seeded on Mueller–Hinton agar (BioMaxima, Lublin, Poland) or Sabouraud dextrose agar (SDA, BioMaxima, Lublin, Poland) plates, respectively, and incubated as just mentioned. These agar cultures were used for further microbiological assays. Cell densities for all assays were adjusted spectrophotometrically (Multiskan GO Microplate Spectrophotometer, Thermo Fisher Scientific, Vantaa, Finland) at 600 and 660 nm for bacteria and fungi, respectively.
(§2) The MICs were determined by broth microdilution method according to the Clinical and Laboratory Standard Institute guidelines For this purpose, initial inoculums of bacteria (5 × 10^5 CFU/mL) in MHB and yeasts (2 × 10^3 CFU/mL) in RPMI-1640 with 2% D-glucose were exposed to the ranging concentration of lipopeptides (0.5–256 μg/mL) and incubated at 37 °C for 18 h and 24 h, respectively. The experiments were conducted on 96-well microtiter polystyrene plates. The growth was assessed visually after incubation and the MIC was assumed as the lowest peptide concentration at which a noticeable growth of microorganisms was inhibited. All experiments were conducted in triplicate.

Assay [2] deals with Candida tropicalis PCM 2709-FY. The following applies: PCM 2709-FY, 24 h. As to the method:
as §1, §2

For assay [3], the system named is Escherichia coli ATCC 25922. The conditions noted are these: ATCC 25922, 18 h. The protocol: as §1, §2
For assay [4], the system named is Pseudomonas aeruginosa ATCC 9027. The following applies: ATCC 9027, 18 h. As to the method: as §1, §2
Assay [5] relates to Candida glabrata ATCC 15126. The following applies: ATCC 15126, 24 h. As to the method: as §1, §2
Assay [6] concerns Candida albicans ATCC 10231. The following applies: ATCC 10231, 24 h. As to the method:
as §1, §2

Assay [7] concerns Candida lipolytica PCM 2680-FY. The conditions noted are these: 24 h. As to the method:
as §1, §2

Assay [8] deals with Staphylococcus epidermidis ATCC 14990. The following applies: ATCC 14990, 24 h. The protocol:
as §1
(§3) MBECs were determined on 96-well polystyrene flat-bottom plates. For this purpose, 24 h cultures of microorganisms were diluted to obtain final density 5.0 × 10^5 CFU/mL and 2.0 × 10^5 CFU/mL of bacteria and fungi, respectively. Briefly, 100 µL of cell suspension was added into the test plates. After 24 h of incubation at 37 °C the wells were rinsed three times with a phosphate buffer saline (PBS, pH 7.4) to remove non-adherent cells. Subsequently, 100 μL of the test compounds in concentration range (0.5–256 μg/mL) were added to each well. After 24 h of incubation at 37 °C, 20 μL of a cell viability reagent was added (resazurin, 4 g/L; Sigma Aldrich, St. Louis, MO, USA). The MBEC was read after 1 h. The determined values were recorded as the lowest concentration at which the reduction of resazurin (from blue to pink) was lower or equal to 10 ± 0.5% as compared to the positive (100%) and negative (0%) controls. The reduction was monitored by measuring absorbance at 570 nm (reduced) and 600 nm (oxidized) using a microplate spectrophotometer (Multiskan GO Microplate Spectrophotometer, Thermo Fisher Scientific, Vantaa, Finland). All experiments were conducted in triplicate.

Assay [9] relates to Candida tropicalis PCM 2709-FY. The following applies: PCM 2709-FY, 24 h. As to the method: as §1, §3
This is another data set of the same source.

In assay [10] the test system is Escherichia coli ATCC 25922. The conditions noted are these: ATCC 25922, 24 h. The protocol:
as §1, §3

Assay [11] deals with Pseudomonas aeruginosa ATCC 9027. The following applies: ATCC 9027, 24 h. The protocol: as §1, §3
Assay [12] has as its system Candida glabrata ATCC 15126. The following applies: ATCC 15126, 24 h. As to the method: as §1, §3
This is another data set of the same source.

Assay [13] relates to Candida albicans ATCC 10231. The following applies: ATCC 10231, 24 h. As to the method: as §1, §3
The source holds these as a separate data set.

The subject of assay [14] is Candida lipolytica PCM 2680-FY. The following applies: 24 h. As to the method:
as §1, §3
This is another data set of the same source.

The test system of assay [15] is human cervical adenocarcinoma cell line (HeLa S3). Briefly: MTT assay. The conditions noted are these: 24 h incubation at 37 °C, six replicates per concentration, repeated at least twice. The protocol:
(§4) To assess the cytotoxicity of the test lipopeptides (IC50), the classic MTT assay on 96-well polystyrene plates was performed for human keratinocytes (HaCaT) and human cervical adenocarcinoma cell line (HeLa S3) acquired from the ATCC. The assay utilizes colorimetric determination of the cell metabolic activity and the color intensity reflects the number of live cells that can be measured spectrophotometrically. The cell line was cultured in a Dulbecco’s modified Eagle Medium (Invitrogen) supplemented with 10% fetal bovine serum (v/v), 100 units/mL of penicillin, 100 μg/mL of streptomycin, and 2 mM l-glutamine and was stored at 37 °C in a humidified 5% CO2 incubator. Briefly, a day after plating of 500 cells per well, a series of concentrations (0.1–200 μg/mL) of the test compounds were applied. DMSO was added to the control cells at a final concentration of 1.0% (v/v), which was related to the maximal concentration of the solvent compounds used in the experiment. After 24 h of incubation with the lipopeptides at 37 °C in a humidified 5% CO2 incubator, a medium containing 1 mg/mL of MTT (3-(4,5-dimethylthiazol-2-yl)-2,5-diphenyltetrazolium bromide) was added to the wells up to a final concentration of 0.5 mg/mL. Subsequently, the plates were incubated at 37 °C for 4 h. Then, the medium was removed by suction, and the formazan product was solubilized with DMSO. The background absorbance at 630 nm was subtracted from that at 570 nm for each well (Epoch, BioTek Instruments, Winooski, VT, USA). Six replicates were conducted for each concentration. All experiments were repeated at least twice and the resulting IC50 values were calculated with a GraFit 7 software (v. 7.0, Erithacus, Berkley, CA, USA).
For orientation: Formazan colour is commonly taken as a measure of viable cells.

Assay [16] deals with human keratinocytes (HaCaT). Nature of the assay: MTT assay. The following applies: 24 h incubation at 37 °C, six replicates per concentration, repeated at least twice. The protocol:
as §4

Consider `CCCCCCCCCCCCCCCC(=O)N[C@H]1CSSC[C@@H](C(N)=O)NC(=O)[C@H](CCCNC(=N)N)NC(=O)[C@H](CCCCN)NC(=O)[C@H](CCCCN)NC(=O)[C@H](CCCCN)NC1=O` [C6, C16-CKKKRC-NH2] (Palmitoyl-CKKKRC-NH2; disulfide 1-6), for which the “MIC S. epidermidis” value in [1] was 8 µg/mL (≈ 8 µM). Further, the “MIC C. tropicalis” value in assay [2] turned out to be 2 µg/mL (≈ 2 µM). The “MIC E. coli” value in assay [3] is 32 µg/mL (≈ 32 µM). For the same molecule, the “MIC P. aeruginosa” value in assay [4] was 128 µg/mL (≈ 128 µM). Further, the “MIC C. glabrata” value in [5] worked out at 4 µg/mL (≈ 4 µM). Further, the “MIC C. albicans” value in assay [6] stood at 4 µg/mL (≈ 4 µM). Further, the “MIC C. lipolytica” value in assay [7] came out at 2 µg/mL (≈ 2 µM). The “MBEC S. epidermidis” value in assay [8] was 128 µg/mL. Moreover, the “MBEC C. tropicalis” value in assay [9] came to 32 µg/mL. The “MBEC E. coli” value in assay [10] was above 256 µg/mL. Also, the “MBEC P. aeruginosa” value in assay [11] is above 256 µg/mL. For the same molecule, in assay [12], the “MBEC C. glabrata” value was 64 µg/mL. Further, the “MBEC C. albicans” value in [13] was found to be 64 µg/mL. The “MBEC C. lipolytica” value in assay [14] worked out at 16 µg/mL. Also, the “HeLa IC50” value in assay [15] was determined as 30.4 ± 2.5 µg/mL. In addition, the “HaCaT IC50” value in assay [16] was 45.7 ± 13.5 µg/mL.
With `CCCCCCCCCCCCCCCC(=O)N[C@H]1CSSC[C@@H](C(N)=O)NC(=O)[C@H](CCCCN)NC(=O)[C@H](CCCCN)NC(=O)[C@H](CCCNC(=N)N)NC(=O)[C@H](CCCNC(=N)N)NC1=O` [C7, C16-CRRKKC-NH2] (Palmitoyl-CRRKKC-NH2; disulfide 1-6), in [1], the “MIC S. epidermidis” value was 4 µg/mL (≈ 3.89 µM). For the same molecule, the “MIC C. tropicalis” value in [2] is 4 µg/mL (≈ 3.89 µM). Further, the “MIC E. coli” value in [3] was determined as 16 µg/mL (≈ 15.6 µM). The “MIC P. aeruginosa” value in [4] stood at 256 µg/mL (≈ 249 µM). For the same molecule, in assay [5], the “MIC C. glabrata” value was 4 µg/mL (≈ 3.89 µM). Also, the “MIC C. albicans” value in assay [6] is 16 µg/mL (≈ 15.6 µM). For the same molecule, in assay [7], the “MIC C. lipolytica” value was found to be 4 µg/mL (≈ 3.89 µM). Besides, in assay [8], the “MBEC S. epidermidis” value worked out at 64 µg/mL. In assay [9], the “MBEC C. tropicalis” value was found to be 32 µg/mL. Moreover, the “MBEC E. coli” value in assay [10] is 256 µg/mL. Also, the “MBEC P. aeruginosa” value in [11] amounted to 256 µg/mL. In addition, in assay [12], the “MBEC C. glabrata” value is 64 µg/mL. Also, the “MBEC C. albicans” value in assay [13] was found to be 64 µg/mL. Further, in assay [14], the “MBEC C. lipolytica” value was 16 µg/mL. In addition, the “HeLa IC50” value in [15] amounted to 20.9 ± 2.1 µg/mL. Moreover, the “HaCaT IC50” value in assay [16] was determined as 21.3 ± 8.2 µg/mL.
For `CCCCCCCCCCCCCCCC(=O)N[C@@H](CCCCN)C(=O)N[C@@H](CCCCN)C(=O)N[C@@H](CCCCN)C(N)=O` [L1, C16-KKK-NH2], the “MIC S. epidermidis” value in [1] was found to be 8 µg/mL (≈ 12.5 µM). Further, the “MIC C. tropicalis” value in assay [2] stood at 8 µg/mL (≈ 12.5 µM). The “MIC E. coli” value in assay [3] is 16 µg/mL (≈ 25 µM). In addition, the “MIC P. aeruginosa” value in assay [4] came out at 64 µg/mL (≈ 100 µM). The “MIC C. glabrata” value in assay [5] stood at 32 µg/mL (≈ 50 µM). Further, the “MIC C. albicans” value in [6] turned out to be 32 µg/mL (≈ 50 µM). For the same molecule, the “MIC C. lipolytica” value in assay [7] was 16 µg/mL (≈ 25 µM). In [8], the “MBEC S. epidermidis” value stood at 32 µg/mL. Moreover, in [9], the “MBEC C. tropicalis” value worked out at 128 µg/mL. The “MBEC E. coli” value in assay [10] is 64 µg/mL. For the same molecule, the “MBEC P. aeruginosa” value in [11] worked out at 128 µg/mL. Moreover, the “MBEC C. glabrata” value in assay [12] came to 256 µg/mL. In addition, the “MBEC C. albicans” value in assay [13] was 256 µg/mL. In assay [14], the “MBEC C. lipolytica” value was found to be 64 µg/mL. Moreover, in assay [15], the “HeLa IC50” value is 3.9 ± 1.1 µg/mL. Moreover, the “HaCaT IC50” value in assay [16] came out at 5.2 ± 0.6 µg/mL.
Consider `CCCCCCCCCCCCCCCC(=O)N[C@@H](CCCCN)C(=O)N[C@@H](CCCCN)C(=O)N[C@@H](CCCCN)C(=O)N[C@@H](CCCCN)C(N)=O` [L2, C16-KKKK-NH2] (Palmitoyl-KKKK-NH2), for which the “MIC S. epidermidis” value in assay [1] is 8 µg/mL (≈ 10.4 µM). The “MIC C. tropicalis” value in [2] came to 4 µg/mL (≈ 5.21 µM). In assay [3], the “MIC E. coli” value turned out to be 32 µg/mL (≈ 41.7 µM). Moreover, the “MIC P. aeruginosa” value in [4] is 16 µg/mL (≈ 20.8 µM). Also, in assay [5], the “MIC C. glabrata” value worked out at 64 µg/mL (≈ 83.3 µM). For the same molecule, the “MIC C. albicans” value in assay [6] was found to be 32 µg/mL (≈ 41.7 µM). Further, in assay [7], the “MIC C. lipolytica” value was determined as 8 µg/mL (≈ 10.4 µM). Further, the “MBEC S. epidermidis” value in assay [8] was 32 µg/mL. Besides, in [9], the “MBEC C. tropicalis” value was found to be 128 µg/mL. In addition, in [10], the “MBEC E. coli” value is 64 µg/mL. Further, the “MBEC P. aeruginosa” value in assay [11] is above 256 µg/mL. The “MBEC C. glabrata” value in [12] turned out to be 256 µg/mL. For the same molecule, in assay [13], the “MBEC C. albicans” value worked out at 256 µg/mL. Also, the “MBEC C. lipolytica” value in assay [14] came out at 64 µg/mL. The “HeLa IC50” value in assay [15] turned out to be 12.8 ± 1.1 µg/mL. In assay [16], the “HaCaT IC50” value was 23.5 ± 1.3 µg/mL.
